Results taken from patent US10287255B2, “Compounds as histone deacetylase 6 inhibitors and pharmaceutical compositions comprising the same” (CHONG KUN DANG PHARMACEUTICAL CORP., priority 2014, dated 2019).

What was measured:
[1] = molecular target: T1, human recombinant HDAC6 (Homo sapiens, UniProt Q9UBN7); assay: HDAC6 enzyme activity inhibition assay (in vitro, fluorimetric); assay type: biochemical; conditions: for HDAC6 selectivity (fold): HDAC6 selectivity over HDAC1; for IC50: human recombinant HDAC6, fluorimetric kit, same protocol as HDAC1
T1 construct: purchased Calbiochem 382180
T1 sequence (Q9UBN7 1-1215): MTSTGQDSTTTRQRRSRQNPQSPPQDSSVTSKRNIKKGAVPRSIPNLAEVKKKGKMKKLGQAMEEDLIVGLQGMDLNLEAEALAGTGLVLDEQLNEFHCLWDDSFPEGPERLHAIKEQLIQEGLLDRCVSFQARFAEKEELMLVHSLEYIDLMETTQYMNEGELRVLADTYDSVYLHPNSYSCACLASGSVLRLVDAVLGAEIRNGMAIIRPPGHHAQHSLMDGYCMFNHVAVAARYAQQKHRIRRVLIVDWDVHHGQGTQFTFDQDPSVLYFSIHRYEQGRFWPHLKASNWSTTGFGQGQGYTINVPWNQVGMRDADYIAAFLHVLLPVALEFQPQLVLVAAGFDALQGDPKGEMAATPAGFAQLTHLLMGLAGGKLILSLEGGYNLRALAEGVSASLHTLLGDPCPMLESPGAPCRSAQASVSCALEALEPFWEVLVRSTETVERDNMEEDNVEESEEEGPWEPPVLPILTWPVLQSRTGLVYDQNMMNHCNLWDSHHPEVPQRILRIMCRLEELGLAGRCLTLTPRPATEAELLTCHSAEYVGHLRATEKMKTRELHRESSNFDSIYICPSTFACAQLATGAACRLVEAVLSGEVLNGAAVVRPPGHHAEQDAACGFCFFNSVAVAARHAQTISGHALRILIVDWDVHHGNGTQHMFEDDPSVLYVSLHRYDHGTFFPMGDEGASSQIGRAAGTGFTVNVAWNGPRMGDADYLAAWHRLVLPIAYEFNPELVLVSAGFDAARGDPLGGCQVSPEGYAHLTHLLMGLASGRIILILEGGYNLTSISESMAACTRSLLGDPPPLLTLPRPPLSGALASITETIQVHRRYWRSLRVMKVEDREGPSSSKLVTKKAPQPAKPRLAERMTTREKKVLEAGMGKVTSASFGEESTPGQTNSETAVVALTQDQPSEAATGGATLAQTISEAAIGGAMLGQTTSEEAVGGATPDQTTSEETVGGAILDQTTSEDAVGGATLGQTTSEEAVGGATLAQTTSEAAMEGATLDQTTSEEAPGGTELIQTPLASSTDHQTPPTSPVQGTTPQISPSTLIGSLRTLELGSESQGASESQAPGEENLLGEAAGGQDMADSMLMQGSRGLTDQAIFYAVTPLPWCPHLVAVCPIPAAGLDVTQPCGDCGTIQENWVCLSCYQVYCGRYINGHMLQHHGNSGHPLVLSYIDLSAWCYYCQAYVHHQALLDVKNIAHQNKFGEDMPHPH
Outline: (§1)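 IC50 values derive from fluorescence (Ex 360, Em 460) after developer treatment (30 min) of reactions of recombinant human HDAC1 or HDAC6 with 10 μM Fluor de Lys-SIRT1 substrate (60 min, 30 °C). Compounds were serially diluted 5-fold; 0.3 μg enzyme was used for HDAC1, with HDAC6 tested identically.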

[2] = molecular target: T2, human recombinant HDAC1 (Homo sapiens, UniProt Q13547); assay: HDAC1 enzyme activity inhibition assay (in vitro, fluorimetric); assay type: biochemical; conditions: human recombinant HDAC1, fluorimetric kit, 30° C. 60 minutes
T2 construct: purchased Enzo Life Science BML-SE456
T2 sequence (Q13547 whole entry): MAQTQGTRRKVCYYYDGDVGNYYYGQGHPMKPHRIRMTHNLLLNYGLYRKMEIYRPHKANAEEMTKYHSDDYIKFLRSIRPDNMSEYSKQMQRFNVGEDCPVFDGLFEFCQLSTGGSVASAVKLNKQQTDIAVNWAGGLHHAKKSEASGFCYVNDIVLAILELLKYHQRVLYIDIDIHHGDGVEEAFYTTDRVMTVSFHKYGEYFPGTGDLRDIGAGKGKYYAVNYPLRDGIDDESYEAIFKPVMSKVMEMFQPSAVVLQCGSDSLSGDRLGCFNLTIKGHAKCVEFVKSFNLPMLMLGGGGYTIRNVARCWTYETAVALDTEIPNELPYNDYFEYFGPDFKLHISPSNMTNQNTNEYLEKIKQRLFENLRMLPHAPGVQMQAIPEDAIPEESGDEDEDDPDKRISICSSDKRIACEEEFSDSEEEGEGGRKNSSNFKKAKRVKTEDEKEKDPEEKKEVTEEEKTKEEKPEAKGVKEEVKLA
Outline: as §1

Row | HDAC6 selectivity (fold) [1] [fold] | IC50 [1] [nM] | IC50 [2] [nM] | SMILES
1 | >5 | 2220 | > 10000 | CC(C)CCN1[C@H](C)CN(Cc2ccc(C(=O)NO)cc2)C[C@@H]1C [Compound 270, N-hydroxy-4-(((3R,5S)-4-isopentyl-3,5-dimethylpiperazin-1-yl)methyl)benzamide]
2 | <13 | > 1000 | 12500 | CC(C)CCN1C[C@@H](C)N(Cc2ccc(C(=O)NO)cc2)[C@@H](C)C1 [Compound 271, N-hydroxy-4-(((2S,6R)-4-isopentyl-2,6-dimethylpiperazin-1-yl)methyl)benzamide]
3 | 67 | 182 | 12200 | CC(C)=CCN1[C@H](C)CN(Cc2ccc(C(=O)NO)cc2)C[C@@H]1C [Compound 272, 4-(((3R,5S)-3,5-dimethyl-4-(3-methylbut-2-en-1-yl)piperazin-1-yl)methyl)-N-hydroxybenzamide]
4 | 31 | 441 | 13700 | CC(C)N1C[C@@H](C)N(Cc2ccc(C(=O)NO)cc2)[C@@H](C)C1 [Compound 273, N-hydroxy-4-(((2S,6R)-4-isopropyl-2,6-dimethylpiperazin-1-yl)methyl)benzamide]
5 | 36 | 378 | 13500 | CCCCN1C[C@@H](C)N(Cc2ccc(C(=O)NO)cc2)[C@@H](C)C1 [Compound 274, 4-(((2S,6R)-4-butyl-2,6-dimethylpiperazin-1-yl)methyl)-N-hydroxybenzamide]
6 | >21 | 475 | > 10000 | CCCCN1[C@H](C)CN(Cc2ccc(C(=O)NO)cc2)C[C@@H]1C [Compound 275, 4-(((3R,5S)-4-butyl-3,5-dimethylpiperazin-1-yl)methyl)-N-hydroxybenzamide]
7 | 36 | 337 | 12300 | C[C@@H]1CN(C(=O)c2ccccc2-c2ccco2)C[C@H](C)N1Cc1ccc(C(=O)NO)cc1 [Compound 276, 4-(((2S,6R)-4-(2-(furan-2-yl)benzoyl)-2,6-dimethylpiperazin-1-yl)methyl)-N-hydroxybenzamide]
8 | 23 | 455 | 10400 | C[C@@H]1CN(C(=O)c2ccccc2-c2ccoc2)C[C@H](C)N1Cc1ccc(C(=O)NO)cc1 [Compound 277, 4-(((2S,6R)-4-(2-(furan-3-yl)benzoyl)-2,6-dimethylpiperazin-1-yl)methyl)-N-hydroxybenzamide]
9 | 16 | 911 | 14400 | C[C@@H]1CN(C(=O)c2ccccc2C2=CCOCC2)C[C@H](C)N1Cc1ccc(C(=O)NO)cc1 [Compound 278, 4-(((2S,6R)-4-(2-(3,6-dihydro-2H-pyran-4-yl)benzoyl)-2,6-dimethylpiperazin-1-yl)methyl)-N-hydroxybenzamide]
10 | >13 | 769 | > 10000 | C[C@@H]1CN(C(=O)c2ccccc2-c2cccnc2)C[C@H](C)N1Cc1ccc(C(=O)NO)cc1 [Compound 279, 4-(((2S,6R)-2,6-dimethyl-4-(2-(pyridin-3-yl)benzoyl)piperazin-1-yl)methyl)-N-hydroxybenzamide]
11 | 46 | 388 | 17700 | C[C@@H]1CN(C(=O)c2ccccc2C2=CCC(C)(C)CC2)C[C@H](C)N1Cc1ccc(C(=O)NO)cc1 [Compound 280, 4-(((2S,6R)-4-(4′,4′-dimethyl-2′,3′,4′,5′-tetrahydro-[1,1′-biphenyl]-2-carbonyl)-2,6-dimethylpiperazin-1-yl)methyl)-N-hydroxybenzamide]
12 | 154 | 23 | 3500 | C[C@@H]1CN(Cc2ccc(C(=O)NO)cc2)C[C@H](C)N1C(=O)c1ccccc1-c1ccco1 [Compound 283, 4-(((3R,5S)-4-(2-(furan-2-yl)benzoyl)-3,5-dimethylpiperazin-1-yl)methyl)-N-hydroxybenzamide]
13 | 84 | 68 | 5700 | C[C@@H]1CN(Cc2ccc(C(=O)NO)cc2)C[C@H](C)N1C(=O)c1ccccc1-c1ccoc1 [Compound 284, 4-(((3R,5S)-4-(2-(furan-3-yl)benzoyl)-3,5-dimethylpiperazin-1-yl)methyl)-N-hydroxybenzamide]
14 | 75 | 93 | 7000 | C[C@@H]1CN(Cc2ccc(C(=O)NO)cc2)C[C@H](C)N1C(=O)c1ccccc1-c1ccncc1 [Compound 285, 4-(((3R,5S)-3,5-dimethyl-4-(2-(pyridin-4-yl)benzoyl)piperazin-1-yl)methyl)-N-hydroxybenzamide]
15 | 81 | 161 | 13100 | C[C@@H]1CN(Cc2ccc(C(=O)NO)cc2)C[C@H](C)N1C(=O)c1ccccc1-c1cccnc1 [Compound 286, 4-(((3R,5S)-3,5-dimethyl-4-(2-(pyridin-3-yl)benzoyl)piperazin-1-yl)methyl)-N-hydroxybenzamide]
16 | 33 | 326 | 10700 | C[C@@H]1CN(Cc2ccc(C(=O)NO)cc2)C[C@H](C)N1C(=O)c1ccccc1C1=CCC(C)(C)CC1 [Compound 288, 4-(((3R,5S)-4-(4′,4′-dimethyl-2′,3′,4′,5′-tetrahydro-[1,1′-biphenyl]-2-carbonyl)-3,5-dimethylpiperazin-1-yl)methyl)-N-hydroxybenzamide]
17 | 48 | 79 | 3800 | Cc1ccc(C(=O)N2[C@H](C)CN(Cc3ccc(C(=O)NO)cc3)C[C@@H]2C)cc1 [Compound 290, 4-(((3R,5S)-3,5-dimethyl-4-(4-methylbenzoyl)piperazin-1-yl)methyl)-N-hydroxybenzamide]
18 | 24 | 55 | 1300 | COc1ccc(C(=O)N2[C@H](C)CN(Cc3ccc(C(=O)NO)cc3)C[C@@H]2C)cc1 [Compound 291, N-hydroxy-4-(((3R,5S)-4-(4-methoxybenzoyl)-3,5-dimethylpiperazin-1-yl)methyl)benzamide]
19 | 76 | 74 | 5600 | C[C@@H]1CN(Cc2ccc(C(=O)NO)cc2)C[C@H](C)N1C(=O)C(C)(C)C [Compound 292, 4-(((3R,5S)-3,5-dimethyl-4-pivaloylpiperazin-1-yl)methyl)-N-hydroxybenzamide]
20 | 44 | 131 | 5800 | CCC(=O)N1[C@H](C)CN(Cc2ccc(C(=O)NO)cc2)C[C@@H]1C [Compound 293, 4-(((3R,5S)-3,5-dimethyl-4-propionylpiperazin-1-yl)methyl)-N-hydroxybenzamide]
21 | 37 | 220 | 8200 | CCCC(=O)N1[C@H](C)CN(Cc2ccc(C(=O)NO)cc2)C[C@@H]1C [Compound 294, 4-(((3R,5S)-4-butyryl-3,5-dimethylpiperazin-1-yl)methyl)-N-hydroxybenzamide]
22 | 72 | 79 | 5700 | C[C@@H]1CN(Cc2ccc(C(=O)NO)cc2)C[C@H](C)N1C(=O)C1CC1 [Compound 295, 4-(((3R,5S)-4-(cyclopropanecarbonyl)-3,5-dimethylpiperazin-1-yl)methyl)-N-hydroxybenzamide]
